US11492341B2, “ACLY inhibitors and uses thereof” (Nimbus Artemis, Inc., priority 2018, dated 2022)
pIC50: −log10 of the molar value.

Target: ACL (Homo sapiens (Human), UniProt P53396)
Experiment: ADP-Glo Assay
Assay type: biochemical
Conditions: 3 nM ACL, 15 μM ATP, 3 μM CoA, 300 μM Citrate
Protocol: Example 28. ADP-Glo Assay
Compounds of the present invention were evaluated in an ADP-GLO assay as follows: a) Dilute cpd 1:3 in succession in DMSO by hand for each cpds for 12 pts b) Add 0.1 μL diluted cpd solution to assay plate, each dose with 2 replicates c) Centrifuge 1000 RPM for 1 min d) Add 5 μL ACL working solution to 384-well assay plate, centrifuge 1000 RPM for 1 min e) Incubate at 25° C. for 15 min f) Add 5 μL substrate working solution to initiate reaction g) Final ACL reaction concentrations: 3 nM ACL, 15 μM ATP, 3 μM CoA, 300 μM Citrate, 0.01% Brij35, 4 mM DTT, 1% DMSO; h) Reference final conc: 30 uM starting Conc, 3× dilution, 11+0 points. Test cpd conc: 30/100 uM starting Conc, 3× dilution, 11+0 points. i) Incubate at 25° C. for 60 min j) Add 10 μL ADP Glo reagent, centrifuge 1000 RPM for 1 min k) Incubate at 25° C. for 40 min l) Add 20 μL kinase detection reagent, centrifuge 1000 RPM for 1 min m) Incubate at 25° C. for 40 min n) Read on Envision for US LUM as RLU

ACL, sequence (P53396 whole entry, species assumed): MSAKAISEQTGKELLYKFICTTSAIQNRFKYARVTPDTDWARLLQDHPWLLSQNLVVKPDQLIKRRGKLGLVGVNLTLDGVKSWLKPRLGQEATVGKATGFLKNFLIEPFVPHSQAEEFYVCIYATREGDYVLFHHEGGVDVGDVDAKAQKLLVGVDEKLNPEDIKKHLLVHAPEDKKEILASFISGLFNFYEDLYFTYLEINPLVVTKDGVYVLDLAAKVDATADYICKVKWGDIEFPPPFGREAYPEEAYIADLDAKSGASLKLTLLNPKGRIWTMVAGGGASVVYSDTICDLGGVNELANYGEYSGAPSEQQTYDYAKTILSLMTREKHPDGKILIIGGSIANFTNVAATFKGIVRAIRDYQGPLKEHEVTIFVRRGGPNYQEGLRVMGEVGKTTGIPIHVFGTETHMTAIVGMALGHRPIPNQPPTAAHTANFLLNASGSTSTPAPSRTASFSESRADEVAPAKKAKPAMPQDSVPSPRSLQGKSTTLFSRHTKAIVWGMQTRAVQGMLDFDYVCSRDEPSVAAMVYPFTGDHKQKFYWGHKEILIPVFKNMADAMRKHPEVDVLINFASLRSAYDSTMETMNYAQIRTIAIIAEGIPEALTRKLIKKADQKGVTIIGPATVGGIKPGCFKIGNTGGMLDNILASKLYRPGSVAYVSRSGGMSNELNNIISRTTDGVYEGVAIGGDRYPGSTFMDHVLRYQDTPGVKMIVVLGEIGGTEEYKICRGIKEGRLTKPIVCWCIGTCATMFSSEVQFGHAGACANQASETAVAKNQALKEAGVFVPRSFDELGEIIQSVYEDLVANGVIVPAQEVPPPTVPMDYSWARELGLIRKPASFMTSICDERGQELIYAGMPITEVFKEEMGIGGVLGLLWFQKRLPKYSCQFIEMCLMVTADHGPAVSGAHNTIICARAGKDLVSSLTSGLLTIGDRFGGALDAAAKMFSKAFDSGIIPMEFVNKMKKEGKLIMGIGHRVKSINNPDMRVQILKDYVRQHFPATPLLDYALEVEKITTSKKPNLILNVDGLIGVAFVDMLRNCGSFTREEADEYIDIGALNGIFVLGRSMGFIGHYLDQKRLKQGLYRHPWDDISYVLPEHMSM

pIC50 | SMILES
4.70 to 6.30 | O=S(=O)(c1cc(Br)cc(Cl)c1O)n1c(-c2cncnc2)cc2ccccc21 [I-29, 4-bromo-2-chloro-6-((2-(pyrimidin-5-yl)-1H-indol-1-yl)sulfonyl)phenol]
4.70 to 6.30 | Cc1ncc(-c2cc3cc(Cl)ccc3n2S(=O)(=O)c2cc(F)cc(F)c2O)cn1 [I-100]
4.70 to 6.30 | Cc1ccccc1-c1cc2cc(Cl)ccc2n1S(=O)(=O)c1cc(Br)cc(Cl)c1O [I-35]
4.70 to 6.30 | Cc1cc2cc(Cl)ccc2n1S(=O)(=O)c1cc(Cl)c(O)cc1Br [I-149]
4.70 to 6.30 | O=C(O)c1cccc2c1cc(-c1ccccc1)n2S(=O)(=O)c1cc(Cl)cc(Br)c1 [I-68]
4.70 to 6.30 | O=S(=O)(c1cc(F)cc(F)c1O)n1c(-c2cnc(C(F)(F)F)nc2)cc2cc(Cl)ccc21 [I-137]
4.70 to 6.30 | Cc1cc2cc(Cl)c(O)cc2n1S(=O)(=O)c1cc(Br)cc(Cl)c1O [I-158]
4.70 to 6.30 | O=S(=O)(c1cc(Cl)cc(Cl)c1O)N1CCC(Cc2ccccc2)C1 (stereo not shown) [I-18]
4.70 to 6.30 | O=S(=O)(c1cc(Br)cc(Cl)c1O)n1c(-c2cnc(C(F)(F)F)nc2)cc2cc(Cl)ccc21 [I-152]
4.70 to 6.30 | COc1ccc2c(c1)cc(-c1ccccc1)n2S(=O)(=O)c1cc(Br)cc(Cl)c1O [I-31, 4-bromo-2-chloro-6-((5-methoxy-2-phenyl-1H-indol-1-yl)sulfonyl)phenol]
4.70 to 6.30 | COc1ccc(C2CCN(S(=O)(=O)c3cc(Cl)cc(Cl)c3O)C2)cc1 (stereo not shown) [I-11]
4.70 to 6.30 | COCOc1cc2c(cc1Cl)cc(C)n2S(=O)(=O)c1cc(Br)cc(Cl)c1O [I-150]
4.70 to 6.30 | O=C(O)c1cc2cc(Cl)ccc2n1S(=O)(=O)c1cc(Cl)cc(Cl)c1O [I-66]
4.70 to 6.30 | O=c1[nH]cc(Cl)cc1S(=O)(=O)n1c(-c2ccc(OC(F)(F)F)cc2)cc2cc(Cl)ccc21 [I-64, 5-chloro-3-((5-chloro-2-(4-(trifluoromethoxy)phenyl)-1H-indol-1-yl)sulfonyl)pyridin-2(1H)-one]
4.70 to 6.30 | O=S(=O)(c1cc(F)cc(F)c1O)n1c(-c2cc3ccccc3s2)cc2cc(Cl)ccc21 [I-143, 2-((2-(benzo[b]thiophen-2-yl)-5-chloro-1H-indol-1-yl)sulfonyl)-4,6-difluorophenol]
≤ 4.70 | COc1c(Cl)cc(Br)cc1S(=O)(=O)n1c(-c2ccccc2)cc2cc(Cl)ccc21 [I-107, 1-((5-bromo-3-chloro-2-methoxyphenyl)sulfonyl)-5-chloro-2-phenyl-1H-indole]
4.70 to 6.30 | O=C(O)c1ccc(-c2cc3cc(Cl)ccc3n2S(=O)(=O)c2cc(Br)cc(Cl)c2O)cc1 [I-45, 4-(1-((5-bromo-3-chloro-2-hydroxyphenyl)sulfonyl)-5-chloro-1H-indol-2-yl)benzoic acid]
4.70 to 6.30 | O=C(O)c1ccc2c(c1)cc(-c1ccccc1)n2S(=O)(=O)c1cc(F)cc(F)c1 [I-87]
4.70 to 6.30 | O=S(=O)(c1cc(Br)cc(Cl)c1O)n1c(-c2ccc(OC(F)(F)F)nc2)cc2cc(Cl)ccc21 [I-146]
4.70 to 6.30 | O=C(O)c1ccc(-c2cc3cc(Cl)ccc3n2S(=O)(=O)c2cc(Cl)cc(Cl)c2)cc1 [I-58]
4.70 to 6.30 | O=S(=O)(c1cccc(F)c1O)n1c(-c2ccccc2)cc2cc(Cl)ccc21 [I-112]
4.70 to 6.30 | COC(=O)c1cc(Cl)c(O)c(S(=O)(=O)N2CCc3ccc(-c4ccccc4)cc32)c1 [I-2]
4.70 to 6.30 | N#Cc1ccc2c(c1)cc(-c1ccccc1)n2S(=O)(=O)c1cc(F)cc(F)c1O [I-77]
4.70 to 6.30 | N#Cc1ccc2c(c1)cc(-c1cn[nH]c1)n2S(=O)(=O)c1cc(F)cc(F)c1O [I-74]
4.70 to 6.30 | Cc1ccc(-c2cc3cc(Cl)ccc3n2S(=O)(=O)c2cc(F)cc(F)c2O)nn1 [I-96]
≤ 4.70 | COC(=O)c1ccc2c(c1)cc(-c1ccccc1)n2S(=O)(=O)c1cc(F)cc(F)c1 [I-114]
4.70 to 6.30 | O=C(O)c1cc(Cl)c(O)c(S(=O)(=O)N2CCc3ccc(-c4ccccc4)cc32)c1 [I-5]
4.70 to 6.30 | CN(C)C(=O)c1ccc(-c2cc3cc(Cl)ccc3n2S(=O)(=O)c2cc(Cl)cc(Cl)c2O)cc1 [I-60]
